According to ChEMBL document CHEMBL1133327, “4-Thiazolidinones: novel inhibitors of the bacterial enzyme MurB” (Bioorg Med Chem Lett, 2000):

How the values were obtained:
[1] = biological target: T1, UDP-N-acetylenolpyruvoylglucosamine reductase (Escherichia coli K-12, UniProt P08373); assay: Inhibition of bacterial enzyme UDP-N-acetylmuramate dehydrogenase
T1 sequence (P08373 whole entry): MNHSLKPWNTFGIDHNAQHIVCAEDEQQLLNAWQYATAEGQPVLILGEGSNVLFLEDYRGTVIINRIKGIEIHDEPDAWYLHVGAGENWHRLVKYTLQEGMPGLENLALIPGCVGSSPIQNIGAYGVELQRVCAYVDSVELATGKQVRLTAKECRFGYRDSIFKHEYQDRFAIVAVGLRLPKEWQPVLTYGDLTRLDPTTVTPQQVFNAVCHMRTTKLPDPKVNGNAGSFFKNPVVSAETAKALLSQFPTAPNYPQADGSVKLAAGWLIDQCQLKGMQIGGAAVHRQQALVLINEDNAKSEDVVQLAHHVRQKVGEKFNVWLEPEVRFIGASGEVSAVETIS

[2] = Compound was tested for in vitro inhibitory activity against the bacterial enzyme UDP-N-acetylmuramate dehydrogenase

| Structure (SMILES) | IC50 [1] | IC50 [2] [µM] |
| --- | --- | --- |
| CC1SC(c2cccc(Oc3ccc(C(C)(C)C)cc3)c2)N([C@@H](Cc2ccccc2)C(=O)O)C1=O (stereo partly specified) | Not Active |  |
| CC1SC(c2cccc(Oc3ccc(C(C)(C)C)cc3)c2)N([C@@H](CC(=O)O)C(=O)O)C1=O (stereo partly specified) | Not Active |  |
| CC1SC(c2cccc(Oc3ccc(C(C)(C)C)cc3)c2)N([C@@H](CO)C(=O)O)C1=O (stereo partly specified) | Not Active |  |
| CC(C)(C)c1ccc(Oc2cccc(C3SCC(=O)N3[C@@H](CC(=O)O)C(=O)O)c2)cc1 (stereo partly specified) | Not Active |  |
| CC(C)(C)c1ccc(Oc2cccc(C3SCC(=O)N3[C@@H](CO)C(=O)O)c2)cc1 (stereo partly specified) | Not Active |  |
| CC(C)(C)c1ccc(Oc2cccc(C3SC(CC(=O)NNc4ccccc4)C(=O)N3CC(=O)O)c2)cc1 (stereo unspecified) | Not Active |  |
| CC1SC(c2cccc(Oc3ccc(C(C)(C)C)cc3)c2)N(CC(=O)O)C1=O (stereo unspecified) | Not Active |  |
| CCCC[C@H](C(=O)O)N1C(=O)CSC1c1cccc(Oc2ccc(C(C)(C)C)cc2)c1 (stereo partly specified) |  | 7.7 |
| CC(C)(C)c1ccc(Oc2cccc(C3SCC(=O)N3[C@@H](CCCN)C(=O)O)c2)cc1 (stereo partly specified) | Not Active |  |
| CC(C)(C)c1ccc(Oc2cccc(C3SC(CC(=O)NNc4ccccc4)C(=O)N3[C@@H](CCCN)C(=O)O)c2)cc1 (stereo partly specified) | Not Active |  |
| CC(C)(C)c1ccc(Oc2cccc(C3SC(CC(=O)NNc4ccccc4)C(=O)N3[C@@H](CC(=O)O)C(=O)O)c2)cc1 (stereo partly specified) | Not Active |  |
| CCCC[C@H](C(=O)O)N1C(=O)C(CC(=O)NNc2ccccc2)SC1c1cccc(Oc2ccc(C(C)(C)C)cc2)c1 (stereo partly specified) |  | 7.7 |
| CC(C)(C)c1ccc(Oc2cccc(C3SCC(=O)N3CC(=O)O)c2)cc1 (stereo unspecified) | Not Active |  |
| CC(C)(C)c1ccc(Oc2cccc(C3SC(CC(=O)NNc4ccccc4)C(=O)N3[C@@H](CO)C(=O)O)c2)cc1 (stereo partly specified) | Not Active |  |
| CCCC[C@@H](C(=O)O)N1C(=O)C(C)SC1c1cccc(Oc2ccc(C(C)(C)C)cc2)c1 (stereo partly specified) |  | 14 |
| CC(C)(C)c1ccc(Oc2cccc(C3SCC(=O)N3[C@@H](Cc3ccccc3)C(=O)O)c2)cc1 (stereo partly specified) | Not Active |  |
| CCCC[C@@H](C(=O)O)N1C(=O)CSC1c1cccc(Oc2ccc(C(C)(C)C)cc2)c1 (stereo partly specified) |  | 28.4 |
| CC1SC(c2cccc(Oc3ccc(C(C)(C)C)cc3)c2)N([C@@H](CCCN)C(=O)O)C1=O (stereo partly specified) | Not Active |  |
| CC(C)(C)c1ccc(Oc2cccc(C3SC(CC(=O)NNc4ccccc4)C(=O)N3[C@@H](Cc3ccccc3)C(=O)O)c2)cc1 (stereo partly specified) | Not Active |  |
| CCCC[C@@H](C(=O)O)N1C(=O)C(CC(=O)NNc2ccccc2)SC1c1cccc(Oc2ccc(C(C)(C)C)cc2)c1 (stereo partly specified) |  | 11 |
| CCCC[C@H](C(=O)O)N1C(=O)C(C)SC1c1cccc(Oc2ccc(C(C)(C)C)cc2)c1 (single isomer, unassigned) |  | 10 |
